Values quoted from earlier work as cited in US20150342872A1 (CRITITECH, INC., priority 2014, published 2015).

Tests used:
[1] = tested on: microtubule bundling and cytotoxic effects
[2] = 3-hour infusion, 135 versus 175 mg/m2

CC(=O)O[C@H]1C(=O)[C@@]2(C)[C@H]([C@H](OC(=O)c3ccccc3)[C@]3(O)C[C@H](OC(=O)[C@H](O)[C@@H](NC(=O)c4ccccc4)c4ccccc4)C(C)=C1C3(C)C)[C@]1(OC(C)=O)CO[C@@H]1C[C@@H]2O [paclitaxel]
minimal concentration required to induce microtubule bundling and cytotoxic effects [1]: > 0.1 µmol/L
increase of AUC (0-∞) for a 30% increase in dose [2]: 89%
